According to patent US20260015372A1, “Organophosphorous Compounds and Uses Thereof” (priority 2022, published 2026):
“Also recorded” adds a separate entry of the source. Where two headings read alike, the source gives them in different places.

Assays:
BCHE [1] = molecular target: T1, BCHE (Homo sapiens (Human), UniProt P06276); experiment: biochemical; format: biochemical; conditions: for Mode of Inhibition: Irreversible = enzyme covalently modified
Protocol: The compounds referred to herein have BCHE inhibitory activity. To determine the inhibitory values, enzymes were incubated for 2 hours in the presence of varying concentrations of compound prior to activity measurements. Activity is then measured colorimetrically upon addition of substrate and Ellman's reagent.

ACHE [2] = molecular target: T2, ACHE (Homo sapiens (Human), UniProt P22303); experiment: Relative Activity of ACHE, 20 μM inhibitor for 2 minutes; format: biochemical; conditions: Activity of Inhibitor incubated enzyme/Activity of unincubated enzyme
T2 sequence (P22303 32-614): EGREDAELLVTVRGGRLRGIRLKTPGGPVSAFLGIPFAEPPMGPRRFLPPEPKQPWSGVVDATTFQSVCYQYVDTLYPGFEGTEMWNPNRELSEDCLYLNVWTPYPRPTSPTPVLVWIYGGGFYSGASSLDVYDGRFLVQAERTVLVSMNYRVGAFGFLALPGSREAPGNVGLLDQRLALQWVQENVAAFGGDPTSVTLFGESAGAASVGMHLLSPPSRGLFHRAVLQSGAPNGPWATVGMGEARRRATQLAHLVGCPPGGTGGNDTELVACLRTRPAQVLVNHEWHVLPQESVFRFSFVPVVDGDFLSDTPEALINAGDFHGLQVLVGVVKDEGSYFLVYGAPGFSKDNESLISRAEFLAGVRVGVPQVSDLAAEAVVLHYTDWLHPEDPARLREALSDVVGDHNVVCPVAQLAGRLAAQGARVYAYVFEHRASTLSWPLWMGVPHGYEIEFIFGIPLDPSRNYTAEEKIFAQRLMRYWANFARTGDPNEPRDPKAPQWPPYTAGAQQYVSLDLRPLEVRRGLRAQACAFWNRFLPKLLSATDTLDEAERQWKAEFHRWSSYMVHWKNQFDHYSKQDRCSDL
Protocol: In order to compare the relative inhibitory activity of the five compounds 27, 35, 89, 90 and 92 against BCHE and ACHE, a solution of each enzyme was incubated with 20 μM of the inhibitor for 2 minutes, and the enzyme activity determined. Table 5 lists the Relative Activity (=Activity of Inhibitor incubated enzyme/Activity of unincubated enzyme).

BCHE [3] = molecular target: T1, BCHE; format: biochemical; conditions: 20 μM inhibitor, 2 minutes; Activity of Inhibitor incubated enzyme/Activity of unincubated enzyme
ACHE [4] = molecular target: T2, ACHE; experiment: ACHE inhibition, colorimetric with substrate and Ellman's reagent; format: biochemical; conditions: for Inhibition of ACHE: [ATC] = 0.1 mM
Aβ (1-40) peptide = Aβ (1-40) peptide (Homo sapiens, UniProt P05067); experiment: Thioflavin T fluorescence assay of β-amyloid peptide aggregation; format: biochemical; conditions: 30 μM peptide, 25° C., 2 hours, ThT fluorescence
Protocol: Neurotoxic plaques, i.e., aggregates of β-amyloid peptide, bind thioflavin T (ThT) and show significant fluorescence.
Aβ (1-40) peptide was solubilized in hexafluoroisopropanol (HFIP). A solution of 25 μM ThT was prepared in 0.025 M phosphate buffer, pH 6.0. Peptide was dissolved in 0.01 M PBS; 0.1M NaCl, pH7.4 to a final concentration of 30 μM. Inhibitors were prepared in methanol. The final concentration of HFIP and methanol were 2% and 10% (v/v) respectively. The control sample consisted peptide incubated in PBS/2% HFI/10% methanol without inhibitor. All samples were mixed and incubated at 25° C. for 2 hours. Fluorescence was measured by mixing 470 μL of ThT solution with 30 μL of the protein solution. Excitation and emission wavelengths were 440 nm with 5 nm slit width and 485 nm with 10 nm slit width, respectively. Biological activity was calculated as percent of inhibitory activity of inhibitor at varying concentration was calculated using the following equation: Vi=100−[(Fi−Fb)/F0]×100. The higher the Vi, the less aggregation of amyloid peptide.

β-amyloid plaque = experiment: In vivo β-amyloid plaque formation, immunohistochemistry; set-up: species or system transgenic Alzheimer's mice
Source text: Images show immunohistochemistry of 13-month transgenic Alzheimer's disease mice brains at subiculum region of hippocampus, treated with DB2CIPP and DMSO control beginning at 9 months. […] Selective inhibition of butyrylcholinesterase in the brain is widely documented as a potential treatment for Alzheimer's disease and dementia, by improving cognition and modulating neuropathological markers of the disease. As an inhibitor of butyrylcholinesterase, DB2CIPP may also be used to inhibit or slow the progression of the Alzheimer's-like symptoms seen in long COVID.

[5] = molecular target: hippocampal butyrylcholinesterase (Mus musculus (Mouse), UniProt Q03311); experiment: In vivo hippocampal butyrylcholinesterase activity; set-up: species or system transgenic Alzheimer's mice; conditions: 10 mg and 20 mg doses over 11 months; listed as DB2CIPP
hippocampal butyrylcholinesterase, sequence (Q03311 30-603 limits assumed): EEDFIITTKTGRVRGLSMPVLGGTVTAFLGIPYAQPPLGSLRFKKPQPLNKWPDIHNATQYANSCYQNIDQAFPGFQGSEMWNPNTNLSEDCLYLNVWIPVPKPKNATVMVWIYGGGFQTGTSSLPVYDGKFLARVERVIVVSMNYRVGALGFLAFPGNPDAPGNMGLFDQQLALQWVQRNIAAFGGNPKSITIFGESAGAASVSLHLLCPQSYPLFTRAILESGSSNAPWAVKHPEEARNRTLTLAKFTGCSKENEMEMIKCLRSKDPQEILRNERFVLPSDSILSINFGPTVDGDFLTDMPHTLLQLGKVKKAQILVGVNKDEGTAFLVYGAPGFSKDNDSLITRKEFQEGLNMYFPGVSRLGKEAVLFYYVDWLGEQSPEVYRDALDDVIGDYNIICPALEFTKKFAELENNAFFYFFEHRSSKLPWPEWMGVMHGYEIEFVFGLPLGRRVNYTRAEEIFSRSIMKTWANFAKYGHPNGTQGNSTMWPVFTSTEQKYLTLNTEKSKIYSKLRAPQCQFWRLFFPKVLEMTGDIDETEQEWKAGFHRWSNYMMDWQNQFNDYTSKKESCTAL
Source text: (§1) DB2CIPP Testing Results Inhibition of BChE in brain and serum. Di-n-butyl 2 chlorophenyl phosphate (DB2CIPP) inhibits BChE in brain and serum without inhibiting AChE in serum (see FIG. 5, FIG. 7, and FIG. 8).

[6] = molecular target: serum acetylcholinesterase (Mus musculus (Mouse), UniProt P21836); experiment: In vivo serum acetylcholinesterase activity; set-up: species or system transgenic Alzheimer's mice; conditions: 10 mg and 20 mg doses over 11 months and 13 months; listed as DB2CIPP
serum acetylcholinesterase, sequence (P21836 32-614 limits assumed): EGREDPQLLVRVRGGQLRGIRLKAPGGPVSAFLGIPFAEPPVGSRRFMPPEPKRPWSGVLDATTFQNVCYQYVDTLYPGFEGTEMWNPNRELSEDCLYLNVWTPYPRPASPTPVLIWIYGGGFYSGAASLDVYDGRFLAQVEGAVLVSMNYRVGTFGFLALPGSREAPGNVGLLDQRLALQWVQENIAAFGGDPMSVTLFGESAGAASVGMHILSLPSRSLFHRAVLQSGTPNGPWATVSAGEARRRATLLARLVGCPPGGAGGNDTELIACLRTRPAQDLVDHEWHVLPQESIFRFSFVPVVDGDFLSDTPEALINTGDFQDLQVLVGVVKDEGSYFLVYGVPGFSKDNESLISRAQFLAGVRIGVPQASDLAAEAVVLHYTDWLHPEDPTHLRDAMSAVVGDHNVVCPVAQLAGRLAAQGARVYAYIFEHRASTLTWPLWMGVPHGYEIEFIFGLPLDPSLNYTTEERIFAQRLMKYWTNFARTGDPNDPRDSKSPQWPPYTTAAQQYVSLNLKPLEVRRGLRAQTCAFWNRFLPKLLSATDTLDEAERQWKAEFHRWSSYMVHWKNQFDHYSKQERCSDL
Source text: as §1

[7] = In vivo blood brain barrier crossing; conditions: other in vivo tests
[8] = molecular target: serum butyrylcholinesterase (Mus musculus (Mouse), UniProt Q03311); experiment: In vivo serum butyrylcholinesterase activity; set-up: species or system transgenic Alzheimer's mice; conditions: 10 mg and 20 mg doses over 11 months and 13 months; listed as DB2CIPP
serum butyrylcholinesterase, sequence (Q03311 30-603 limits assumed): as the sequence (Q03311 30-603 limits assumed) above
Source text: as §1

[9] = enzyme incubated 2 hours with compound
[10] = enzyme incubated 2 hours with compound, read-out: BCHE Ki ± SEM

T1 sequence (P06276 29-602, species assumed): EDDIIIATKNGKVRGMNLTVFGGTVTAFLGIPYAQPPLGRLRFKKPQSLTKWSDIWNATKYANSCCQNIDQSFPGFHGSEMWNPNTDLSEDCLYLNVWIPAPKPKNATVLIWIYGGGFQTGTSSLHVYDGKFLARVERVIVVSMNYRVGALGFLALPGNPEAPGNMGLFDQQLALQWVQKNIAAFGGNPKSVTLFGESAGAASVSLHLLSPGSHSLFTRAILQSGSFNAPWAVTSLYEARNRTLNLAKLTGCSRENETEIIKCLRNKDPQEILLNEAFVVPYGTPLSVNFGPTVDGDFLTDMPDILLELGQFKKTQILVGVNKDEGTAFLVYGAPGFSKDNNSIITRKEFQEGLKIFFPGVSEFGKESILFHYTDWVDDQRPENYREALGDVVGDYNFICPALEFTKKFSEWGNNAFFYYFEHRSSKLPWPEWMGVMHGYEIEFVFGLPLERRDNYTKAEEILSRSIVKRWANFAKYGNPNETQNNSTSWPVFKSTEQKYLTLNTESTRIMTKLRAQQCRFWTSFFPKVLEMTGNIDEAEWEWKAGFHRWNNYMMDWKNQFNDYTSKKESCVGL

Compound `CCCCOP(=O)(OCCCC)OCCCOP(=O)(OCCCC)OCCCC` [Compound 59, Tetrabutyl propane-1,3-diyl bisphosphate] has an IC50 (BCHE [1]; [9]) of 0.79 µM.
`CCCCOP(=O)(OCCC=CCCOP(=O)(OCCCC)OCCCC)OCCCC` [Compound 66, Tetrabutyl 3-hexene-1,6-diyl bisphosphate] showed an IC50 (BCHE [1]; [9]) of 1.2 µM.
Compound `CCCCOP(=O)(OCCCC)OCCOCCOP(=O)(OCCCC)OCCCC` [Compound 65, Tetrabutyl 3-oxapentane-1,5-diyl bisphosphate] has an IC50 (BCHE [1]; [9]) of 31.2 µM.
With `CCCCOP(=O)(OCCCC)Oc1ccc2ccccc2c1` [Compound 35, Di-n-butyl 2-napthyl phosphate] the “Relative Activity of ACHE” value (ACHE [2]) was 0.84, the “Relative Activity of BCHE” value (BCHE [3]) was 0.10 and the Ki (BCHE [1]) was 1.9 µM. For the same compound, the “Mode of Inhibition” value (BCHE [1]) was “Reversible”.
For `CCCOP(=O)(OCCC)Oc1ccccc1` [Compound 95, Di-n-propyl phenyl phosphate], the “Inhibition of ACHE” value (ACHE [4]; inhibitor 5 mM) was “^b<20% Inhibition at [lc] = 5 mM and [ATC] = 0.1 mM”.
Work on `CCOP(=O)(OCC)OCCCCCOP(=O)(OCC)OCC` [Compound 55, Tetraethyl pentane-1,5-diyl bisphosphate] yielded an IC50 (BCHE [1]; [9]) of 35.4 µM.
With `CCCCOP(=O)(OCCCC)OCCCCOP(=O)(OCCCC)OCCCC` [Compound 60, Tetrabutyl butane-1,4-diyl bisphosphate] the IC50 (BCHE [1]; [9]) was 88.1 µM.
In the case of `CCOP(=O)(OCC)OCCOCCOP(=O)(OCC)OCC` [Compound 58, Tetraethyl 3-oxapentane-1,5-diyl bisphosphate], the IC50 (BCHE [1]; [9]) is reported as 11.1 µM.
In the case of `CCCCOP(=O)(OCC)Oc1ccccc1` (racemic) [Compound 99, (±)-n-Butyl ethyl phenyl phosphate], the “Inhibition of ACHE” value (ACHE [4]; inhibitor 3 mM) is reported as “^f<8% inhibition at [2] = 3 mM and [ATC] = 0.1 mM”.
For `CCCCOP(=O)(OCCCC)Oc1cc(C)cc(C)c1` [Compound 27, Di-n-butyl 3,5-dimethylphenyl phosphate], the “Relative Activity of ACHE” value (ACHE [2]) was 0.93, the “Relative Activity of BCHE” value (BCHE [3]) was 0.45 and the Ki (BCHE [1]) was 1 µM. For the same compound, the “Mode of Inhibition” value (BCHE [1]) was “Reversible”.
For `CCCCOP(=O)(OCCCC)Oc1ccccc1` [Compound 96, Di-n-butyl phenyl phosphate], the “Inhibition of ACHE” value (ACHE [4]; inhibitor 1 mM) was “^cNo inhibition at [1d] = 1 mM and [ATC] = 0.1 mM”.
In the case of `CCOP(=O)(OCC)OCCCCCCCOP(=O)(OCC)OCC` [Compound 57, Tetraethyl heptane-1,7-diyl bisphosphate], the IC50 (BCHE [1]; [9]) is reported as 40.1 µM.
Work on `CCCCOP(=O)(OCCCC)OCCCCCOP(=O)(OCCCC)OCCCC` [Compound 61, Tetrabutyl pentane-1,5-diyl bisphosphate] yielded an IC50 (BCHE [1]; [9]) of 2.72 µM.
In the case of `CCCCOP(=O)(Cc1cc(C)cc(C)c1)OCCCC` [Compound 92, Di-n-butyl 3,5-dimethylbenzylphosphonate], the “Relative Activity of ACHE” value (ACHE [2]) is reported as 0.99, the “Relative Activity of BCHE” value (BCHE [3]) is reported as 0.64 and the “Mode of Inhibition” value (BCHE [1]) is reported as “Irreversible^g”.
In the case of `CCCCOP(=O)(OCCCC)OCCCCCCOP(=O)(OCCCC)OCCCC` [Compound 62, Tetrabutyl hexane-1,6-diyl bisphosphate], the “Inhibition of aggregation of β-amyloid peptides” value (Aβ (1-40) peptide) is reported as “significantly inhibited”, the “Mode of Inhibition” value (BCHE [1]) is reported as “Reversible” and the Ki (BCHE [1]; [10]) is reported as 4 µM.
For `CCCCOP(=O)(Cc1cccc2ccccc12)OCCCC` [Compound 89, Di-n-butyl 1-naphthylmethylphosphonate], the “Relative Activity of ACHE” value (ACHE [2]) was 0.96, the “Relative Activity of BCHE” value (BCHE [3]) was 0.47 and the “Mode of Inhibition” value (BCHE [1]) was “Irreversible^g”.
For `CCCCCOP(=O)(OCCCCC)Oc1ccccc1` [Compound 97, Di-n-pentyl phenyl phosphate], the “Inhibition of ACHE” value (ACHE [4]; inhibitor 3 mM) was “^d<8% Inhibition at [le] = 3 mM and [ATC] = 0.1 mM”, the Ki (BCHE [1]) was 6 µM and the “Mode of Inhibition” value (BCHE [1]) was “^aPartial competitive”.
Work on `CCOP(=O)(OCC)OCCCOP(=O)(OCC)OCC` [Compound 53, Tetraethyl propane-1,3-diyl bisphosphate] yielded an IC50 (BCHE [1]; [9]) of 8.26 µM.
`COP(=O)(OC)Oc1ccccc1` [Compound 93, Dimethyl phenyl phosphate] gave a Ki (ACHE [4]) of 6500 µM and a Ki (BCHE [1]) of 1700 µM.
In the case of `O=P(Oc1ccccc1)(OC1CCCCC1)OC1CCCCC1` [Compound 98, Di-cyclohexyl phenyl phosphate], the “Inhibition of ACHE” value (ACHE [4]; inhibitor 3 mM) is reported as “^eNo inhibition at [1f] = 3 mM and [ATC] = 0.1 mM”, the Ki (BCHE [1]) is reported as 7 µM and the “Mode of Inhibition” value (BCHE [1]) is reported as “^aPartial competitive”.
For `CCCCOP(=O)(OCCCC)Oc1ccccc1Cl` [Compound 9, Di-n-butyl 2-chlorophenyl phosphate], the “Beta amyloid plaques immunopositive staining in the hippocampus” value (β-amyloid plaque; 10 mg or 20 mg doses over 13 months, vs untreated mice) was “reduced”, the “Inhibition of β-amyloid plaque formation” value (β-amyloid plaque; 13-month mice, subiculum region of hippocampus, treated beginning at 9 months, vs DMSO control, listed as DB2CIPP) was “significant inhibition” and the “Inhibition of hippocampal butyrylcholinesterase activity” value [5] was “significant inhibition”. For the same compound, the IC50 (ACHE [4]) was 47 µM, the IC50 (ACHE [4]; [9]) was 47 µM and the “Inhibition of aggregation of β-amyloid peptides” value (Aβ (1-40) peptide) was “did not inhibit”. For the same compound, the Serum acetylcholinesterase activity [6] was “substantially not altered; also recorded: not significantly altered”, the IC50 (BCHE [1]) was 0.00069 µM and the “Selectivity toward BCHE over ACHE” value (BCHE [1]; ACHE IC50 vs BCHE IC50) was “approximately 68,000 fold”. The “Mode of Inhibition” value (BCHE [1]) was “Irreversible^g”, the IC50 (BCHE [1]; [9]) was 0.00069 µM and the “Ability to cross the blood brain barrier (BBB)” value [7] was “cross the blood brain barrier”. For the same compound, the “Inhibition of serum butyrylcholinesterase activity” value [8] was “significant inhibition”.
In the case of `CCOP(=O)(OCC)OCCCCOP(=O)(OCC)OCC` [Compound 54, Tetraethyl butane-1,4-diyl bisphosphate], the IC50 (BCHE [1]; [9]) is reported as 8.2 µM.
For `O=P(OCCCCCCOP(=O)(Oc1ccccc1)Oc1ccccc1)(Oc1ccccc1)Oc1ccccc1` [Compound 67, Tetraphenyl hexane-1,6-diyl bisphosphate], the “Inhibition of aggregation of β-amyloid peptides” value (Aβ (1-40) peptide) was “significantly inhibited” and the “Mode of Inhibition” value (BCHE [1]) was “Reversible”.
In the case of `CCCCOP(=O)(OCCCC)OCCCCCCCCOP(=O)(OCCCC)OCCCC` [Compound 64, Tetrabutyl octane-1,8-diyl bisphosphate], the IC50 (BCHE [1]; [9]) is reported as 2.39 µM.
With `CCOP(=O)(OCC)Oc1ccccc1` [Compound 94, Diethyl phenyl phosphate] the Ki (ACHE [4]) was 3100 µM and the Ki (BCHE [1]) was 55 µM.
In the case of `CCCCOP(=O)(Cc1ccc2ccccc2c1)OCCCC` [Compound 90, Di-n-butyl 2-naphthylmethylphosphonate], the “Relative Activity of ACHE” value (ACHE [2]) is reported as 0.95, the “Relative Activity of BCHE” value (BCHE [3]) is reported as 0.45 and the “Mode of Inhibition” value (BCHE [1]) is reported as “Irreversible^g”.
For `CCCCOP(=O)(OCCCC)OCCCCCCCOP(=O)(OCCCC)OCCCC` [Compound 63, Tetrabutyl heptane-1,7-diyl bisphosphate], the IC50 (BCHE [1]; [9]) was 3.95 µM.
For `CCOP(=O)(OCC)OCCCCCCOP(=O)(OCC)OCC` [Compound 56, Tetraethyl hexane-1,6-diyl bisphosphate], the “Inhibition of aggregation of β-amyloid peptides” value (Aβ (1-40) peptide) was “significantly inhibited”, the “Mode of Inhibition” value (BCHE [1]) was “Reversible” and the Ki (BCHE [1]; [10]) was 228 µM.
